Experimental data reported in patent US20250099517A1, “Use of Lactobacillus reuteri Y7 strain for prevention or treatment of ocular diseases” (Taipei Medical University, priority 2023, published 2025).

System: catalase (CAT)
Assay: serum antioxidant enzyme activity by ELISA: CAT
Assay type: in vivo, C57BL/6 mice
Experimental: The C57BL/6 mice, which weighed between 23 and 25 g, were divided into seven groups randomly. In each group, the six mice induced by blue light successfully were incorporated in experiments. The samples dissolved in deuterium-depleted water (DDW) were fed to mice through oral tubes once a day. The groups were named and introduced as follows: • (1) Solvent not classified group (NC): The mice were fed with 0.2 ml deuterium-depleted water (DDW) through tubes; • (2) Negative control group (Blue light (BL)): The mice were fed with 0.2 ml deuterium-depleted water (DDW) through tubes and exposed to blue light; • (3) Low-dosage Y7 probiotics group (Y7L): The mice were fed with low-dosage Y7 probiotics (probiotic counts of 1.0×10^8 CFU/ml dissolved in 0.2 ml DDW per day) and exposed to blue light; • (4) High-dosage Y7 probiotics group (Y7H): The mice were fed with high-dosage Y7 probiotics (probiotic counts of 1.0×10^9 CFU/ml dissolved in 0.2 ml DDW per day) and exposed to blue light; • (5) Positive control group (lutein (LU)): The mice were fed with lutein and exposed to blue light. The recommended human dosage of lutein is 30 mg.
The mouse cage (48×25×20 cm) placed inside a stainless ventilated box was equipped with blue light boards as blue light sources around and above. […]
The performance of antioxidant enzymes in serums was analyzed through the enzyme-linked immunosorbent assay (ELISA).

Substance: Lactobacillus reuteri Y7 [Y7 probiotics]
- activity of catalase (CAT) compared with the BL group (Y7H high-dosage group): increased significantly
- activity of catalase (CAT) compared with the BL group (Y7L low-dosage group): increased significantly
